Test results published in paper PMC10482975 (Nature Communications, 2023).

Experiments:
[1] = molecular target: T1, M5 mAChR WT (Homo sapiens, UniProt P08912); assay: [3H]-NMS radioligand dissociation binding, M5 mAChR WT
T1 construct: expressed in transfected cells
T1 sequence (P08912 1-532): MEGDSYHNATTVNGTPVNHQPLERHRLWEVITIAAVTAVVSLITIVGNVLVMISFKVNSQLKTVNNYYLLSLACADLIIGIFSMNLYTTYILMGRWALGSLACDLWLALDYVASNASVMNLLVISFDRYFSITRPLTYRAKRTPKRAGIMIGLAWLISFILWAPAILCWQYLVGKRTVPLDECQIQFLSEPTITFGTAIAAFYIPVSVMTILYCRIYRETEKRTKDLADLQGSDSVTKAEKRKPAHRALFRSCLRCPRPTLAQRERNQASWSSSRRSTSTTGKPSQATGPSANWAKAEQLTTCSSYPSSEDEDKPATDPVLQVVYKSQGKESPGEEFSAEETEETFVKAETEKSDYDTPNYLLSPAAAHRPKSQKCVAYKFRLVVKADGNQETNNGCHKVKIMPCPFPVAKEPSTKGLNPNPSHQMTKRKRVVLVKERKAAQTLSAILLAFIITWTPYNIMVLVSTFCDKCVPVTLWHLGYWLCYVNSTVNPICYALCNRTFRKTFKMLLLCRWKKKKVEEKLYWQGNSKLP
Description: (§1) Flp-In Chinese hamster ovary (CHO) (Thermo Fisher Scientific) cells stably expressing mAChR WTs or mutant constructs were cultured in Dulbecco’s modified Eagle’s medium (DMEM, Invitrogen) containing 5% foetal bovine serum (FBS; ThermoTrace) and […] of hygromycin (Roche) in a humidified incubator (37 °C, 5% CO2). Upon reaching confluence, media was removed, cells were washed with phosphate buffered saline (PBS) and harvested from tissue culture flasks using versene (PBS with 0.2 g EDTA). Cells were then pelleted through centrifugation at 350 × g for three minutes followed by resuspension in DMEM + 5% FBS. Cells were then either plated for an assay or reseeded into a tissue culture flask.

[2] = molecular target: T2, M4 mAChR WT (Homo sapiens, UniProt P08173); assay: [3H]-NMS radioligand dissociation binding, M4 mAChR WT; conditions: M4 mAChR
T2 construct: expressed in transfected cells
T2 sequence (P08173 1-479): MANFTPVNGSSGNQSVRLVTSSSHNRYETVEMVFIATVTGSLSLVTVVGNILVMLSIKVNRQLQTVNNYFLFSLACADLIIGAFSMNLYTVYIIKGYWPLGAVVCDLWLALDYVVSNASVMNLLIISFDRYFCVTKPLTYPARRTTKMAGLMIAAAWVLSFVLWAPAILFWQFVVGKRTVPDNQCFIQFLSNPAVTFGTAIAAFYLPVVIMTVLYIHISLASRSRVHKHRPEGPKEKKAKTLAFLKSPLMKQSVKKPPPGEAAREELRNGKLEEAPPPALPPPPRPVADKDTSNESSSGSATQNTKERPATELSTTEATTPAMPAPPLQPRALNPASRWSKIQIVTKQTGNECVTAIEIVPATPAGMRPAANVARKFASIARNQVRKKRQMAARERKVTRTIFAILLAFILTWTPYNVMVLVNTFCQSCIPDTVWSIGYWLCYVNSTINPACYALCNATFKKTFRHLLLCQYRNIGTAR
Description: as §1

[3] = molecular target: T3, M3 mAChR WT (Homo sapiens, UniProt P20309); assay: [3H]-NMS radioligand dissociation binding, M3 mAChR WT; conditions: M3 mAChR, 10uM Atr + 30uM LY2033
T3 construct: expressed in transfected cells
T3 sequence (P20309 whole entry): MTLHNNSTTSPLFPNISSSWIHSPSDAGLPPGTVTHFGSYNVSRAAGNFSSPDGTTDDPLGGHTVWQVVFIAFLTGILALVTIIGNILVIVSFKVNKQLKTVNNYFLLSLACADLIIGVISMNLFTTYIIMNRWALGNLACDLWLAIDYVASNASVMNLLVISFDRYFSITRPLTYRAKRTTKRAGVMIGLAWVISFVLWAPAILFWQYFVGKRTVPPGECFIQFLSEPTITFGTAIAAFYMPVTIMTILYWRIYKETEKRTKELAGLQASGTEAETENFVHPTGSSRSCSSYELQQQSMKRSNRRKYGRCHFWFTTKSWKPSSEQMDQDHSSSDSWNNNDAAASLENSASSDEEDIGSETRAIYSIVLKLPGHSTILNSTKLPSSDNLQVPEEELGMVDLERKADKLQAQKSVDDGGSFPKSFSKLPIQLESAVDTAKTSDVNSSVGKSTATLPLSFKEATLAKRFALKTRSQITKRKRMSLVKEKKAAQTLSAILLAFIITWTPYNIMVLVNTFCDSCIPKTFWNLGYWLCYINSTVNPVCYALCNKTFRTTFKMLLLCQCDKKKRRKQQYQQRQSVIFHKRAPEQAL
Description: as §1

[4] = molecular target: T4, M2 mAChR WT (Homo sapiens, UniProt P08172); assay: [3H]-NMS radioligand dissociation binding, M2 mAChR WT
T4 construct: expressed in transfected cells
T4 sequence (P08172 1-466): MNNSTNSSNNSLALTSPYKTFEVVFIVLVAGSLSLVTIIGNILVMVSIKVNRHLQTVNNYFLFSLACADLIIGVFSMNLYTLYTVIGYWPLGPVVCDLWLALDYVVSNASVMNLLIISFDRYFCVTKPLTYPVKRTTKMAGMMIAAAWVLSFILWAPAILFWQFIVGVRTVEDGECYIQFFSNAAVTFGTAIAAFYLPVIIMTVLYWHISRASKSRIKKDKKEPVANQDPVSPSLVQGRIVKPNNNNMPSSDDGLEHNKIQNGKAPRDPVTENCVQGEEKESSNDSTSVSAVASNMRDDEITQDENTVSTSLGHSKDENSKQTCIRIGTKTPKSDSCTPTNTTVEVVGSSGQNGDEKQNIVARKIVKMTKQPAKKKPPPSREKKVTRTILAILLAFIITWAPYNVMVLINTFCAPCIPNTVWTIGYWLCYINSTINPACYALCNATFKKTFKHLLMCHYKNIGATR
Description: as §1

In the case of `COc1nc2sc(C(=O)NC3CC3)c(N)c2c(C)c1Cl` [LY2033298], the “[3H]-NMS binding remaining (0 min = 100), MEAN” value (from here on “[3H]-NMS binding remaining”) ([1]; 10uM Atr + 30uM LY2033, 10 min) is reported as 102.761, the “[3H]-NMS binding remaining” value ([1]; 10uM Atr + 30uM LY2033, 15 min) is reported as 100.045 and the “[3H]-NMS binding remaining” value ([1]; 10uM Atr + 30uM LY2033, 30 min) is reported as 98.0655. The “[3H]-NMS binding remaining” value ([1]; 10uM Atr + 30uM LY2033, 90 min) was 75.4577, the “[3H]-NMS binding remaining” value ([1]; 10uM Atr + 30uM LY2033, 120 min) was 66.5441 and the “[3H]-NMS binding remaining” value ([1]; 10uM Atr + 30uM LY2033, 210 min) was 53.7527. For the same compound, the “[3H]-NMS binding remaining” value ([2]; 10uM Atr + 10uM LY2033, 30 min) was 112.685, the “[3H]-NMS binding remaining” value ([2]; 10uM Atr + 10uM LY2033, 60 min) was 100.725 and the “[3H]-NMS binding remaining” value ([2]; 10uM Atr + 10uM LY2033, 90 min) was 100.81. The “[3H]-NMS binding remaining” value ([2]; 10uM Atr + 10uM LY2033, 180 min) was 78.3598, the “[3H]-NMS binding remaining” value ([2]; 10uM Atr + 10uM LY2033, 300 min) was 57.1596 and the “[3H]-NMS binding remaining” value ([2]; 10uM Atr + 30uM LY2033, 30 min) was 97.9955. For the same compound, the “[3H]-NMS binding remaining” value ([2]; 10uM Atr + 30uM LY2033, 90 min) was 92.0634, the “[3H]-NMS binding remaining” value ([2]; 10uM Atr + 30uM LY2033, 180 min) was 80.808 and the “[3H]-NMS binding remaining” value ([2]; 10uM Atr + 30uM LY2033, 300 min) was 69.858. The “[3H]-NMS binding remaining” value ([3]; 10 min) was 96.1336, the “[3H]-NMS binding remaining” value ([3]; 15 min) was 101.345 and the “[3H]-NMS binding remaining” value ([3]; 30 min) was 103.79. For the same compound, the “[3H]-NMS binding remaining” value ([3]; 90 min) was 88.3999, the “[3H]-NMS binding remaining” value ([3]; 120 min) was 77.6461 and the “[3H]-NMS binding remaining” value ([3]; 210 min) was 65.167. For the same compound, the “[3H]-NMS binding remaining” value ([4]; 10uM Atr + 30uM LY2033, 5 min) was 100.231, the “[3H]-NMS binding remaining” value ([4]; 10uM Atr + 30uM LY2033, 10 min) was 104.86 and the “[3H]-NMS binding remaining” value ([4]; 10uM Atr + 30uM LY2033, 15 min) was 105.465. The “[3H]-NMS binding remaining” value ([4]; 10uM Atr + 30uM LY2033, 30 min) was 97.2904, the “[3H]-NMS binding remaining” value ([4]; 10uM Atr + 30uM LY2033, 40 min) was 99.7247 and the “[3H]-NMS binding remaining” value ([4]; 10uM Atr + 30uM LY2033, 60 min) was 83.2953. For the same compound, the “[3H]-NMS binding remaining” value ([4]; 10uM Atr + 30uM LY2033, 90 min) was 74.9771.
